Results: publication PMC9749936, “Synthesis and structure–activity relationship studies of N-terminal analogues of the lipopeptide antibiotics brevicidine and laterocidine” (RSC Medicinal Chemistry, 2022)
Bridge positions count the residues as written; N and C are the ends. Square brackets hold non-standard residues; d marks the D form. Peptide text beside a SMILES is read from it. * marks the point of attachment. Octanoyl(7-Me) = CC(C)CCCCCC(=O)*; Myristoyl = CCCCCCCCCCCCCC(=O)*; dOrn = NCCC[C@@H](N)C(=O)O; Octanoyl = CCCCCCCC(=O)*; Orn = NCCC[C@H](N)C(=O)O

Assays:
E. coli ATCC 25922 = format: cell-based, Escherichia coli; conditions: ATCC 25922, 18 h
Protocol: (§1) The minimum inhibitory concentrations (MICs) of brevicidine and laterocidine analogues were determined against a panel of clinically relevant ESKAPE pathogens; Escherichia coli (E. coli), Klebsiella pneumoniae (K. pneumoniae), Acinetobacter baumannii (A. baumannii), Pseudomonas aeruginosa (P. aeuroginosa) and Staphylococcus aureus (S. aureus), which cause the majority of nosocomial infections in the United States.[16] […] In this resistance mechanism, the polymyxin target (lipid A) is modified, reducing binding affinity. For this reason, a strain of colistin-resistant E. coli carrying the mcr-1 gene was also included in the panel. […]
(§2) IV. Antimicrobial testing
(§3) All minimum inhibitory concentrations (MICs) were determined according to Clinical and Standards Laboratory Institute (CLSI) guidelines. Blood agar plates were inoculated with glycerol stocks of E. coli ATCC 25922, K. pneumoniae ATCC 13883, A. baumannii ATCC 17961, P. aeruginosa PAO1 and S. aureus USA300. The inoculated agar plates were then incubated for 16 h at 37 °C . Individually grown colonies were subsequently used to inoculate 5 mL aliquots of TSB that were then incubated at 37 °C with shaking at 220 rpm. E. coli 25922 MCR-1 glycerol stock was used to inoculate 5 mL of TSB supplemented with kanamycin that was then incubated for 16 h at 37 °C with shaking at 220 rpm. The next day the culture was diluted 100 fold in TSB supplemented with kanamycin and incubated at 37 °C with shaking at 220 rpm. In parallel, the lipopeptide antibiotics DMSO stocks to be assessed were serially diluted with MHB in polypropylene 96-well plates (50 µL in each well). Colistin sulfate stocks were dissolved in water before being diluted with MHB. Aliquots of the inoculated TSB were incubated until an OD600 of around 0.5 was reached. The bacterial suspensions were then diluted with MHB (2 x 10^5 CFU mL-1) and added to the microplates containing the test compounds (50 µL to each well). The well-plates were sealed with an adhesive membrane and after 18 h of incubation at 37 °C with shaking at 600 rpm, the wells were visually inspected for bacterial […]
(§4) growth. MIC values reported are based on three technical replicates and defined as the lowest concentration of the compound that prevented visible growth of bacteria. […]
(§5) The values obtained from a read-out at 415 nm were corrected for background (negative control) and transformed to a percentage relative to the positive control.
(§6) VI. HPLC and HRMS analysis of peptides
(§7) Peptide Name Chemical Calcd Mass found Calcd Overall […]

E. coli ATCC 25922 MCR-1 = format: cell-based, Escherichia coli; conditions: colistin-resistant strain carrying mcr-1; CLSI broth microdilution in MHB, 18 h at 37 °C, visual inspection; three technical replicates
Protocol: as §1
Colisitin sulfate was purchased from Activate Scientific. Kanamycin monosulfate was purchased from MP Biomedicals. E. coli ATCC 25922, S. aureus USA300 (ATCC BAA1717), K. pneumoniae ATCC 13883 and A. baumannii ATCC 17961 belong to the American Type Culture Collection (ATCC). P. aeruginosa PAO1 was kindly provided by L.H.C. Quarles Van Ufford, Utrecht University, Utrecht, The Netherlands. E. coli ATCC 25922 MCR-1 was transfected in house using the pGDP2-MCR1 plasmid kindly provided by Yong-Xin Li, The University of Hong Kong, Hong Kong, China. Sheep blood agar plates (Ref. PB5039A) were purchased from Thermo Scientific. Tryptic soy broth (Ref. 02-200-500) was purchased from Scharlab. Mueller-Hinton broth (Ref. X927.1) was purchased from Carl Roth. Polypropylene 96-wells plates (Ref. 3879) were purchased from Corning. […]
(10.0 mL). 2-Chlorotrityl (CT) chloride resin (2.00 g, 0.81 mmol g-1) and DIPEA (420 µL, 2.40 mmol) were added. […]
A gradient […]
method for C14 - C16 laterocidine was employed, starting at 100% solvent A for 2 min, ramping up to 70 % solvent B over 45 min, ramping up to 100% solvent B over 1 min, remaining there for 6 min before ramping down to 100% solvent A and remaining there for 5 min. High resolution mass spectrometry (HRMS) spectra of brevicidine peptides were recorded by Analytical Services and Environmental Projects (ASEP) at Queen’s University Belfast on a Waters LCT Premier ToF mass spectrometer using the electrospray ionisation (ESI) technique. HRMS spectra of laterocidine peptides were performed on a Thermo Scientific Dionex UltiMate 3000 HPLC system with a Phenomenex Kinetex C18 (2.6 µm, 2.1 x 150 mm) column at 35 °C and equipped with a diode array detector. The following solvent system, at a flow rate of 0.3 mL/min, was used: solvent A = 0.1% formic acid in water, solvent B = 0.1% formic acid in acetonitrile. A gradient method was employed, starting at 95 % solvent A and 5 % solvent B for 1 min, ramping up to 95 % solvent B over 9 min, ramping up to 98 % solvent B over 1 min, remaining there for 1 min before ramping back down to 95 % solvent A over 2 min and remaining there for 1 min.
The system was connected to a Bruker micrOTOF-Q II mass spectrometer (ESI ionization) calibrated internally with sodium […]
as §2
as §3, with “MHB.” for “MHB. Aliquots of the inoculated TSB were incubated until an OD600 of around 0.5 was reached. The bacterial suspensions were then diluted with MHB (2 x 10^5 CFU mL-1) and added to the microplates containing the test compounds (50 µL to each well). The well-plates were sealed with an adhesive membrane and after 18 h of incubation at 37 °C with shaking at 600 rpm, the wells were visually inspected for bacterial”

K. pneumoniae ATCC 13883 = format: cell-based, Klebsiella pneumoniae; conditions: ATCC 13883, 18 h
Protocol: as §1, §2, §3, §4, §5, §6, §7

A. baumannii ATCC 17961 = format: cell-based, Acinetobacter baumannii; conditions: ATCC 17961, 18 h
Protocol: as §1, §2, §3, §4, §5, §6, §7

P. aeruginosa PAO1 = format: cell-based, Pseudomonas aeruginosa; conditions: PAO1, 18 h
Protocol: as §1, §2, §3, §4, §5, §6, §7

S. aureus USA300 = format: cell-based, Staphylococcus aureus; conditions: USA300, 18 h
Protocol: as §1, §2, §3, §4, §5, §6, §7

Sheep red blood cells = format: cell-based; conditions: red cells of sheep, 1 h, 64 μg mL^−1
Protocol: Having ascertained the antimicrobial activity of all synthetic peptides against a panel of ESKAPE pathogens, we next assessed their mammalian toxicity with hemolytic assays using sheep red blood cells. The % hemolysis for all peptides at 64 μg mL^−1 was determined, with the hemolysis induced by the surfactant 0.1% Triton X-100 taken as 100%. […] Hemolysis was <1% for all analogues with a C8 chain or shorter, including the strongest antibacterial peptide C8-Lat (22). Hemolytic activity increased up to C14 (>50% for C14-Lat) and then decreased at longer chain lengths, perhaps due to decreased solubility of peptides or aggregation. […]
Phosphate-Buffered Saline (PBS) containing 0.002% Tween20 (buffer) five times. Then, the red blood cells were normalized to obtain a positive control read-out between 2.5 and 3.0 at 415 nm to stay within the linear range with the maximum sensitivity. A serial dilution of the compounds (128 – 1 µg/mL, 75 µL) was prepared in a 96-well polypropylene plate. The outer border of the plate was filled with 75 µL buffer. Each plate contained a positive control (0.1% Triton-X final concentration, 75 µL) and a negative control (buffer, 75 µL) in triplicate. The normalized blood cells (75 µL) were added and the plates were incubated at 37 °C for 1 h while shaking at 500 rpm. A flat-bottom polystyrene plate with 100 µL buffer in each well was prepared. After incubation, the plates were centrifuged (800 g for 5 min at room temperature) and 25 µL of the supernatant was transferred to their respective wells in the flat-bottom plate. The values obtained from a read-out at 415 nm were corrected for background (negative control) and transformed to a percentage relative to the positive control. […]

| Compound | Antimicrobial activity (MIC) E. coli ATCC 25922 (E. coli ATCC 25922) | Antimicrobial activity (MIC) E. coli ATCC 25922 MCR-1 (E. coli ATCC 25922 MCR-1) | Antimicrobial activity (MIC) K. pneumoniae ATCC 13883 (K. pneumoniae ATCC 13883) | Antimicrobial activity (MIC) A. baumannii ATCC 17961 (A. baumannii ATCC 17961) | Antimicrobial activity (MIC) P. aeruginosa PAO1 (P. aeruginosa PAO1) | Antimicrobial activity (MIC) S. aureus USA300 (S. aureus USA300) | % Hemolytic activity, sheep red blood cells (Sheep red blood cells) |
| --- | --- | --- | --- | --- | --- | --- | --- |
| CC[C@H](C)[C@@H]1NC(=O)[C@@H](NC(=O)[C@H](Cc2c[nH]c3ccccc23)NC(=O)[C@@H](CCCN)NC(=O)CNC(=O)[C@H](CCCN)NC(=O)[C@@H](CCCN)NC(=O)[C@@H](Cc2c[nH]c3ccccc23)NC(=O)[C@@H](Cc2ccc(O)cc2)NC(=O)[C@@H](CO)NC(=O)CCCCCC(C)C)[C@@H](C)OC(=O)CNC(=O)CNC(=O)[C@H](CC(N)=O)NC1=O [Compound 2, laterocidine] ({Octanoyl(7-Me)}-[dS][dY][dW][dOrn][Orn]G[dOrn]WTINGG; ester 9-C; N-terminus assumed) | 2 µg/mL | 2 µg/mL | 2 to 4 µg/mL | 2 µg/mL | 4 µg/mL | >32 µg/mL | 0.4% |
| CCCCCCCC(=O)N[C@H](CO)C(=O)N[C@H](Cc1ccc(O)cc1)C(=O)N[C@H](Cc1c[nH]c2ccccc12)C(=O)N[C@H](CCCN)C(=O)N[C@@H](CCCN)C(=O)NCC(=O)N[C@H](CCCN)C(=O)N[C@@H](Cc1c[nH]c2ccccc12)C(=O)N[C@@H]1C(=O)N[C@@H]([C@@H](C)CC)C(=O)N[C@@H](CC(N)=O)C(=O)NCC(=O)NCC(=O)O[C@@H]1C [Compound 22] (Octanoyl-[dS][dY][dW][dOrn][Orn]G[dOrn]WTINGG; ester 9-C) | 2 µg/mL | 2 µg/mL | 2 µg/mL | 4 µg/mL | 2 µg/mL | >32 µg/mL |  |
| CCCCCCCCCCCCCC(=O)N[C@H](CO)C(=O)N[C@H](Cc1ccc(O)cc1)C(=O)N[C@H](Cc1c[nH]c2ccccc12)C(=O)N[C@H](CCCN)C(=O)N[C@@H](CCCN)C(=O)NCC(=O)N[C@H](CCCN)C(=O)N[C@@H](Cc1c[nH]c2ccccc12)C(=O)N[C@@H]1C(=O)N[C@@H]([C@@H](C)CC)C(=O)N[C@@H](CC(N)=O)C(=O)NCC(=O)NCC(=O)O[C@@H]1C [Compound 25] (Myristoyl-[dS][dY][dW][dOrn][Orn]G[dOrn]WTINGG; ester 9-C) | 8 µg/mL | 8 µg/mL | 8 µg/mL | 2 µg/mL | 8 µg/mL | 16 µg/mL |  |
